Source: patent US20050239780A1, “Tetrahydropyran derivative” (priority 2002, published 2005)
pIC50: −log10 of the molar value. Read-outs that look alike come from different tables or passages of the source.

Key:
[1] = tested on: plasma lipid in high-cholesterol feed-loaded rats; test: Pharmacological test on high-cholesterol feed-loaded rats; assay type: in vivo; details: high-cholesterol feed-loaded male SD rats, oral once a day for 7 days, relative to control group; for ED50: Rattus norvegicus, 168 h, read-out: ED50 non-HDL cholesterol lowering effect
Procedure: 3. Pharmacological Test on High-Cholesterol Feed-Loaded Rats
The influence of test compounds on plasma lipid in vivo was investigated with high-cholesterol feed-loaded rats. A 0.5% methyl cellulose suspension containing a test compound was forcedly orally administered to male SD rats loaded with high-cholesterol feed (1.5% cholesterol, 10% coconut oil, 0.5% cholic acid), once a day for continuous 7 days. After the final administration, the rats were fed with nothing, and after 6 hours, their blood was collected under anesthetization with diethyl ether. Using an automatic analyzer, Hitachi's Model 7250, the total cholesterol, HDL cholesterol and triglyceride in plasma were measured. Non-HDL cholesterol was obtained by subtracting HDL cholesterol from total cholesterol. The non-HDL cholesterol lowering effect of the test compound, relative to the control group, was represented by ED50.

[2] = tested on: plasma lipid in KK-Ay mice; test: Pharmacological test in KK-Ay mice; assay type: in vivo, male KK-Ay mice; details: oral once a day for 7 days, relative to control group
Procedure: The influence of test compounds on plasma lipid in vivo was investigated with KK-Ay mice. A 0.5% methyl cellulose suspension containing a test compound was forcedly orally administered to male KK-Ay mice once a day for continuos 7 days. After the final administration, the mice were fed with nothing, and after 6 hours, their blood was collected under anesthetization with diethyl ether. Using the automatic analyzer, Hitachi's Model 7250, the total cholesterol, HDL cholesterol and triglyceride in plasma were measured. Non-HDL cholesterol was obtained by subtracting HDL cholesterol from total cholesterol. The plasma lipid lowering effect of the test compound was expressed in percentage relative to the control group.

[3] = tested on: VLDL secretion in vivo in rats; test: Measurement of blood cholesterol and triglyceride in rats (VLDL secretion, Triton WR-1339); details: male SD rats, oral, Triton WR-1339 400 mg/kg i.v. after 1 hour, blood after 4 hours; for ED50: Rattus norvegicus
Procedure: 2. Measurement of Blood Cholesterol and Triglyceride in Rats
The influence of test compounds on VLDL secretion in vivo in rats was investigated. A 0.5% methyl cellulose suspension containing a test compound was orally administered to male SD rats. After 1 hour, a physiological saline solution of Triton WR-1339 (corresponding to 400 mg/kg) was injected through the caudal vein. After 4 hours, their blood was collected under anesthetization with diethyl ether. The total cholesterol and triglyceride in blood were measured by the use of “Cholesterol C Test Wako” and “Triglyceride G Test Wako” (both from Wako Pure Chemical Industries), respectively. The rats orally administered with the 0.5% methyl cellulose solution and then intravenously injected with physiological saline were used as a normal group, and those orally administered with the 0.5% methyl cellulose solution and then intravenously injected with physiological saline of Triton WR-1339 were used as a control group. The difference in the total cholesterol (TC) or triglyceride (TG) in the serum between the control group and the normal group was defined as the amount of secretion per hour, and the lowering effect in the amount of secretion of the test compound was represented by ED50.

[4] = tested on: apo B-related lipoprotein secretion in Hep G2 cells; test: Measurement of apo B-related lipoprotein secretion in liver cells (Hep G2, enzyme immunoassay); assay type: cell-based, human; details: culture supernatant
Procedure: 1. Measurement of Apo B-Related Lipoprotein Secretion in Liver Cells
Hep G2 cells were cultured in a 96-well plate using a 10% fetal bovine serum-containing Dulbecco's modified Eagle's medium (to be referred to as “10% FBS-containing DMEM” hereinafter). The medium was exchanged with a 10% FBS-containing DMEM that contained a DMSO solution of the test compound (DMSO final concentration 0.1%), and the cells were further incubated therein for 18 hours to obtain the culture supernatant. The culture supernatant obtained from a 10% FBS-containing DMEM that contained DMSO alone (final concentration 0.1%) was used as the control. The apo B-related lipoprotein produced in the culture supernatant was determined through an enzyme immunoassay in the manner mentioned below.
A solution of anti-human apolipoprotein B monoclonal antibody (4 μg/ml) was dispensed in 100 μl portions into a 96-well immunoassay plate and kept at 4° C. for 18 hours. Each well was washed three times with a phosphate buffer to which had been added 0.1% Tween 20 (to be referred to as “PBS-T” hereinafter), and 300 μl of a 4-fold diluted immune blocker “Block Ace” was added thereto and kept at 37° C. for 1 hour. The aforementioned culture supernatant was added to it, and kept at 37° C. for 3 hours. This was washed three times with PBS-T, and then 100 μl of a solution of caprine anti-human apolipoprotein B polyclonal antibody (2,000-fold dilution) was added to it and kept at 37° C. for 1 hour. This was washed three times with PBS-T, and then 100 μl of a solution of alkaline phosphatase-labeled anti-caprine IgG antibody (2,000-fold dilution) was added thereto and kept at 37° C. for 1 hour. This was washed four times with PBS-T, once with PBS and then with a carbonate buffer (pH 9.5), and 100 μl of a solution of an alkaline phosphatase substrate was added thereto and kept at room temperature for 5 minutes. A 50 μl portion of 0.2 M sodium hydroxide was added to it to stop the reaction, and the absorbance at 405 nm was measured. From the calibration curve based on a standard, human low-density lipoprotein, the absolute amount of apo B-related lipoprotein was obtained.

[5] = read-out: ED50 TC (total cholesterol secretion lowering effect)
[6] = read-out: ED50 TG (triglyceride secretion lowering effect)
[7] = Homo sapiens, HepG2, 18 hours incubation

| SMILES | ED50 [1] | Lowering rate TG ([2]; dose 3 mg/kg) | Lowering rate non-HDL ([2]; dose 3 mg/kg) | ED50 [3, 5] | ED50 [3, 6] | pIC50 [4, 7] | ED50 non-HDL cholesterol lowering effect [1] | ED50 TC (total cholesterol secretion lowering effect) [3] | ED50 TG (triglyceride secretion lowering effect) [3] | pIC50 ([4]; 18 hours incubation) | Lowering rate TG ([2]; dose 10 mg/kg) | Lowering rate non-HDL ([2]; dose 10 mg/kg) |
| --- | --- | --- | --- | --- | --- | --- | --- | --- | --- | --- | --- | --- |
| Cc1nc2c(c(C)c1CCC(=O)O)c1ccccc1n2Cc1ccc([C@@H](C(=O)N2CCN(c3ccccn3)CC2)C2CCOCC2)cc1 [Example 17, (−)-3-(2,4-Dimethyl-9-{4-[(S)-2-oxo-2-(4-pyridin-2-ylpiperazin-1-yl)-1-(tetrahydro-2H-pyran-4-yl)ethyl]benzyl}-9H-pyrido[2,3-b]indol-3-yl)propanoic acid] | 0.14 mg/kg | 86% | 85% | 0.74 mg/kg | 0.39 mg/kg | 8.32 |  |  |  |  |  |  |
| CCCN1CCN(C(=O)[C@H](c2ccc(Cn3c4ccccc4c4c(C)c(CCC(=O)O)c(C)nc43)cc2)C2CCOCC2)CC1 [Example 18, (+)-3-(2,4-Dimethyl-9-{4-[(S)-2-oxo-2-(4-propylpiperazin-1-yl)-1-(tetrahydro-2H-pyran-4-yl)ethyl]benzyl}-9H-pyrido[2,3-b]indol-3-yl)propanoic acid] | 0.2 mg/kg | 87% | 85% | 0.5 mg/kg | 0.52 mg/kg | 8.52 |  |  |  |  |  |  |
| Cc1nc2c(c(C)c1CCC(=O)O)c1ccccc1n2Cc1ccc([C@@H](C(=O)NCc2ccccc2)C2CCOCC2)cc1 [Example 19, (−)-3-(9-{4-[(S)-(benzylcarbamoyl)(tetrahydro-2H-pyran-4-yl)methyl]benzyl}-2,4-dimethyl-9H-pyrido[2,3-b]indol-3-yl)propanoic acid] | 0.059 mg/kg | 91% | 95% | 0.17 mg/kg | 0.24 mg/kg | 8.77 |  |  |  |  |  |  |
| Cc1nc2c(c(C)c1CCC(=O)O)c1cc(F)ccc1n2Cc1ccc([C@@H](C(=O)NCc2ccccc2)C2CCOCC2)cc1 [Example 23] |  | 96% | 91% |  |  |  | 0.063 mg/kg | 0.27 mg/kg | 0.19 mg/kg |  |  |  |
| Cc1nc2c(c(C)c1CCC(=O)O)c1ccc(F)cc1n2Cc1ccc([C@@H](C(=O)NCc2ccccc2)C2CCOCC2)cc1 [Example 24] |  | 95% | 96% |  |  |  | 0.040 mg/kg | 0.21 mg/kg | 0.22 mg/kg |  |  |  |
| Cc1nc2c(c(C)c1CCC(=O)O)c1ccccc1n2Cc1ccc([C@@H](C(=O)N(C)C)C2CCOCC2)cc1 [Example 37, 3-(2,4-dimethyl-9-{4-[(S)-(dimethylcarbamoyl)(tetrahydro-2H-pyran-4-yl)methyl]benzyl}-9H-pyrido[2,3-b]indol-3-yl)propanoic acid] |  | 57% | 62% | 0.71 mg/kg | 0.71 mg/kg | 7.54 |  |  |  |  |  |  |
| Cc1nc2c(c(C)c1CCC(=O)O)c1ccccc1n2Cc1ccc([C@@H](C(=O)N2CC=CCC2)C2CCOCC2)cc1 [Example 40] |  | 81% | 74% |  |  |  | <0.1 mg/kg | 0.47 mg/kg | 0.28 mg/kg | 7.92 |  |  |
| Cc1nc2c(c(C)c1CCC(=O)O)c1ccccc1n2Cc1ccc([C@@H](C(=O)N2CCC(c3ccccc3)CC2)C2CCOCC2)cc1 [Example 45] |  | 92% | 86% |  |  |  | 0.41 mg/kg |  |  | 7.55 |  |  |
| CCCCCN1CCN(C(=O)[C@H](c2ccc(Cn3c4ccccc4c4c(C)c(CCC(=O)O)c(C)nc43)cc2)C2CCOCC2)CC1 [Example 50] |  | 94% | 90% |  |  |  | 0.19 mg/kg | 0.48 mg/kg | 0.41 mg/kg | 8.49 |  |  |
| COCCCN1CCN(C(=O)[C@H](c2ccc(Cn3c4ccccc4c4c(C)c(CCC(=O)O)c(C)nc43)cc2)C2CCOCC2)CC1 [Example 56] |  | 41% | 63% |  |  |  | 1.1 mg/kg | 0.9 mg/kg | 1.3 mg/kg | 8.14 |  |  |
| Cc1nc2c(c(C)c1CCC(=O)O)c1ccccc1n2Cc1ccc([C@@H](C(=O)N2CCN(C3CCC3)CC2)C2CCOCC2)cc1 [Example 57] |  | 89% | 86% |  |  |  | 0.88 mg/kg | 0.74 mg/kg | 0.56 mg/kg | 8.10 |  |  |
| Cc1nc2c(c(C)c1CCC(=O)O)c1ccccc1n2Cc1ccc([C@@H](C(=O)NCc2cccc(F)c2)C2CCOCC2)cc1 [Example 117] |  | 98% | 98% |  |  |  | 0.032 mg/kg |  |  | 8.66 |  |  |
| Cc1cc(C)c2c3ccccc3n(Cc3ccc([C@@H](C(=O)N[C@@H](CO)c4ccccc4)C4CCCC4)cc3)c2n1 [Implitapide, reference compound] |  |  |  |  |  |  | 1.0 mg/kg | 1.0 mg/kg | 1.1 mg/kg |  | 15% | 14% |
